Data taken from US7718674B2, “Methods of relieving neuropathic pain with the S-isomer of 2-{2[N-(2-indanyl)-N-phenylamino]ethyl}piperidine” (Bridge Pharma, Inc., priority 2004, dated 2010).
“Also recorded” adds a separate entry of the source.

How the values were obtained:
[1] = from U.S. Pat. No. 6,413,987; cited from earlier work
[2] = tested on: skin on the back of male or female guinea pigs; settings: from U.S. Pat. No. 6,413,987; cited from earlier work
[3] = tested on: skin on the back of male or female guinea pigs; assay: Dermal anesthetic activity, pin-prick method after dermal application; assay type: in vivo, guinea pig; settings: for anesthetic score (dermal anesthetic effect, FIG. 1): after 30 min application, score = average number of six probings not producing a skin twitch, 10% solution of base in DMSO/water
Protocol: Approximately 18-24 hours before each experiment, the skin on the back of male or female guinea pigs was shaved and depilated with a commercially available hair remover. The anesthetic action of each agent following dermal application was determined using a “pin-prick” method as described by Aberg (Acta Pharmacol Toxicol, 1972, 31: 273-286). Before and at various intervals after treatment, the area of the skin was tested for the presence or absence of a skin twitch in response to six standardized dermal probings with a pointed metal “algesimeter” at a predetermined maximum load of 10 grams. The average number of probings not producing a skin twitch response was designated as the “anesthetic score”. In this test system no response to six stimuli represents a “maximal anesthetic activity”. In the present calculations, the dermal anesthetic activity was calculated from the time of removal of the test article formulation from the skin until skin twitch responses to all but one pinprick were identified. In experiments on the dermal anesthetic activity, a single area of skin 1 inch square was marked off on the middle of the back of each animal. This area was covered by a 1 inch square, 16 layer thick gauze pad onto which was deposited 0.45 ml of a 10% solution of the test agent dissolved in a mixture of water and DMSO. The gauze pad was covered with a 1.5 inch square sheet of Saran Wrap™ which was attached to the surrounding skin with tape. The entire area was then covered by wrapping an elastic bandage around the trunk of the animal. After a predetermined duration of treatment, the coverings were removed and the skin assessed for the presence of anesthesia as described above. Dermal anesthesia tests were performed at ten-minute intervals to measure onset time and duration of dermal anesthetic activity; comparisons were made with reference compounds and vehicle. All test compounds were in the base form and dissolved in DMSO/water when tested for dermal anesthesia.

Dermal / tissue toxicity = settings: in vivo
Analgesic activity = assay: Analgesic activity; design: species or system rats; settings: rat, in vivo
Protocol: Peripheral mononeuropathy is induced in rats by loose ligation of the sciatic nerve in anesthetized rats. Fourteen days later, the nociceptive threshold is evaluated after animal dosing with drug or vehicle, using graded paw pressure testing to assess hyperalgesia.
Diabetes is induced in rats by intraperitoneal injection of streptozotocin. Three weeks later, the nociceptive threshold is measured after animal dosing using the paw pressure to assess hyperalgesia.

Row | SMILES | tissue toxicity [1] | local / dermal anesthetic activity [2] | anesthetic score (dermal anesthetic effect, FIG. 1) [3] | onset of dermal anesthetic activity ([3]; comparison of the enantiomers of LAC-34) | duration of action (duration of anesthesia) ([3]; comparison with racemate and other enantiomer, same concentration) | dermal toxicity (Dermal / tissue toxicity) | analgesic activity (Analgesic activity)
1 | c1ccc(N(CCC2CCCCN2)C2Cc3ccccc3C2)cc1 (racemic) [RS-LAC-34, 2-{2-[N-(2-indanyl)-N-phenylamino]ethyl}piperidine] | little, if any, tissue toxicity | active local anesthetic compound | – | – | – | – | –
2 | c1ccc(N(CC[C@H]2CCCCN2)C2Cc3ccccc3C2)cc1 [R-LAC-34] | – | – | 3.5 | significantly shorter; also recorded: shorter onset of action | shorter duration of action | – | –
3 | c1ccc(N(CC[C@@H]2CCCCN2)C2Cc3ccccc3C2)cc1 [S-LAC-34, S-2-{2-[N-(2-indanyl)-N-phenylamino]ethyl}piperidine] | – | – | 2.6 | – | – | low dermal toxicity | expresses analgesic activity
